Where “and” joins values, the source holds several entries; their conditions need not be identical. Identical values can stand only once. Like-named read-outs stand apart in the source and are kept apart here.
Tests used:
Assay in all cases: Disruption of BRAF RBD interaction with Ras (FRET / MOA assay, with Cyclophilin A)
Assay type in all cases: biochemical
[1] = target: NRAS G12C (Homo sapiens, UniProt P01111+P62937, G12C); conditions: NRAS G12C; read-out: NRAS G12C FRET data IC50
Text: (§1) This protocol may also be executed substituting other Ras proteins or nucleotides.
(§2) The purpose of this biochemical assay was to measure the ability of test compounds to facilitate ternary complex formation between a nucleotide-loaded K-Ras isoform and Cyclophilin A; the resulting ternary complex disrupts binding to a BRAF^RBD construct, inhibiting K-Ras signaling through a RAF effector. Data is reported as IC50 values.
(§3) Compound was present in plate wells as a 10-point 3-fold dilution series starting at a final concentration of 30 μM. After incubation at 25° C. for 3 hours, a mixture of Anti-His Eu-W1024 and anti-GST allophycocyanin was then added to assay sample wells at final concentrations of 10 nM and 50 nM, respectively, and the reaction incubated for an additional 1.5 hours. […] Compounds that facilitate disruption of a K-Ras:RAF complex were identified as those eliciting a decrease in the TR-FRET ratio relative to DMSO control wells.
as §2, with “BRAF^RBDD” for “BRAF^RBD”

[2] = target: KRAS G12V (Homo sapiens, UniProt P01116+P62937, G12V)
Chain of KRAS G12V (P01116 1-169 isoform P01116-2 G12V limits assumed): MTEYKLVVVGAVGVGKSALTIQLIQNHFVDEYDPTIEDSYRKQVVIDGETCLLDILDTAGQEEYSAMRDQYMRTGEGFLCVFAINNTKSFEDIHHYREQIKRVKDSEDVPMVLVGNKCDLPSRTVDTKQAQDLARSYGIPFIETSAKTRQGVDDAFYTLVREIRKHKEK
Chain of KRAS G12V (P62937 whole entry): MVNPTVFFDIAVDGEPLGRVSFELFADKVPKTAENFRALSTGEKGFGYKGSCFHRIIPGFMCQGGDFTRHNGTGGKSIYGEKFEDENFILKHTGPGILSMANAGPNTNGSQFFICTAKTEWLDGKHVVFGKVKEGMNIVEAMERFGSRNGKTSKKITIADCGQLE
Text: as §1, §2, §3
as §2, with “BRAF^RBDD” for “BRAF^RBD”

[3] = target: KRAS WT (Homo sapiens, UniProt P01116+P62937)
Chain of KRAS WT (P01116 1-169 isoform P01116-2 limits assumed): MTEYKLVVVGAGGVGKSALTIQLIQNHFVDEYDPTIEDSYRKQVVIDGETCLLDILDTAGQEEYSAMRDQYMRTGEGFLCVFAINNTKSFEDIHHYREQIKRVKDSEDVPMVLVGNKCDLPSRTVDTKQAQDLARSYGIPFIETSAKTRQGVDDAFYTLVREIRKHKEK
Chain of KRAS WT (P62937 whole entry): as the sequence (P62937 whole entry) above
Text: as §1, §2, §3
as §2, with “BRAF^RBDD” for “BRAF^RBD”

[4] = target: KRAS G12C (Homo sapiens, UniProt P01116+P62937, G12C)
Chain of KRAS G12C (P01116 1-169 isoform P01116-2 G12C): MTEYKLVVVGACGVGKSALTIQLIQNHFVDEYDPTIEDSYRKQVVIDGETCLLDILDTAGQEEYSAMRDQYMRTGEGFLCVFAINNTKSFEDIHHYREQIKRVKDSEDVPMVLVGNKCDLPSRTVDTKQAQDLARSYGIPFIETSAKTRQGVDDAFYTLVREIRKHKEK
Chain of KRAS G12C (P62937 whole entry): as the sequence (P62937 whole entry) above
Text: as §1, §2, §3
as §2, with “BRAF^RBDD” for “BRAF^RBD”

[5] = target: KRAS G12D (Homo sapiens, UniProt P01116+P62937, G12D)
Chain of KRAS G12D (P01116 1-169 isoform P01116-2 G12D limits assumed): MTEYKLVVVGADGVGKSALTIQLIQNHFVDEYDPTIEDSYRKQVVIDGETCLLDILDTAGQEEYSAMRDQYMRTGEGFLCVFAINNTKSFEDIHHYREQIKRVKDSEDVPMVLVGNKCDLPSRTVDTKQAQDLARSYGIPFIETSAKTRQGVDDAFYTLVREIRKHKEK
Chain of KRAS G12D (P62937 whole entry): as the sequence (P62937 whole entry) above
Text: as §1, §2, §3
as §2, with “BRAF^RBDD” for “BRAF^RBD”

[6] = target: KRAS G12S (Homo sapiens, UniProt P01116+P62937, G12S)
Chain of KRAS G12S (P01116 1-169 isoform P01116-2 G12S limits assumed): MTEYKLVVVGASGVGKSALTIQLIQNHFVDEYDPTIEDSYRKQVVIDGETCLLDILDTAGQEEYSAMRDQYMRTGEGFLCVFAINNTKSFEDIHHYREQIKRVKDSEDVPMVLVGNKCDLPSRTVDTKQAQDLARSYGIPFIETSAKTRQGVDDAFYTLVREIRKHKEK
Chain of KRAS G12S (P62937 whole entry): as the sequence (P62937 whole entry) above
Text: as §1, §2, §3
as §2, with “BRAF^RBDD” for “BRAF^RBD”

[7] = target: KRAS G13C (Homo sapiens, UniProt P01116+P62937, G13C)
Chain of KRAS G13C (P01116 1-169 isoform P01116-2 G13C): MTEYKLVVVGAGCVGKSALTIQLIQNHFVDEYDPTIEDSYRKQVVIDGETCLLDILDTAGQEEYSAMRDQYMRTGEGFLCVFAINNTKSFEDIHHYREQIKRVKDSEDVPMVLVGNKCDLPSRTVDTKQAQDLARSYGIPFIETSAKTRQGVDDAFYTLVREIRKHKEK
Chain of KRAS G13C (P62937 whole entry): as the sequence (P62937 whole entry) above
Text: as §1, §2, §3
as §2, with “BRAF^RBDD” for “BRAF^RBD”

[8] = KRAS G12V, read-out: KRAS G12V FRET data IC50
[9] = KRAS WT, read-out: KRAS WT FRET data IC50
[10] = KRAS G12C, read-out: KRAS G12C FRET data IC50
[11] = read-out: KRAS G12D FRET data, IC50
[12] = read-out: KRAS G12S FRET data, IC50
[13] = KRAS G13C, read-out: KRAS G13C FRET data IC50

Chain of NRAS G12C (P01111 whole entry G12C): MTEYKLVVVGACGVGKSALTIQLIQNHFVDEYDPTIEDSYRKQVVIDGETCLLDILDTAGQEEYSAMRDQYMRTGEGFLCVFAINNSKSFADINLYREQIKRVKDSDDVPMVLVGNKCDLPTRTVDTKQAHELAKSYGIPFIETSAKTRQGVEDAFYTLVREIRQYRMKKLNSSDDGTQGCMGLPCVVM
Chain of NRAS G12C (P62937 whole entry): as the sequence (P62937 whole entry) above

Row | SMILES | IC50 [1] [nM] | IC50 [2, 8] [nM] | IC50 [3, 9] [nM] | IC50 [4, 10] [nM] | IC50 [5, 11] [nM] | IC50 [6, 12] [nM] | IC50 [7, 13] [nM] | IC50 ([4]; KRAS G12C FRET data IC50, KRAS G12C) | IC50 ([5]; KRAS G12D FRET data, IC50) [nM] | IC50 ([6]; KRAS G12S FRET data, IC50) | IC50 ([2]; KRAS G12V FRET data IC50, KRAS G12V) | IC50 ([7]; KRAS G13C FRET data IC50, KRAS G13C) | IC50 ([3]; KRAS WT FRET data IC50, KRAS WT)
1 | C=CC(=O)N1CC[C@]2(COCCN2C(=O)N(C)[C@H](C(=O)N[C@H]2Cc3nc(cs3)-c3ccc4c(c3)c(c(-c3cccnc3[C@H](C)OC)n4CC)CC(C)(C)COC(=O)[C@@H]3CCCN(N3)C2=O)C(C)C)C1 (atropisomer, axis not shown) [Example A677] | 100 to 1000 | – | – | – | – | – | – | – | – | – | – | – | –
2 | C=CC(=O)N1CC(OC[C@H](C(=O)N[C@H]2Cc3cccc(c3)-c3ccc4c(c3)c(c(-c3cccnc3[C@H](C)OC)n4CC)CC(C)(C)COC(=O)[C@@H]3CCCN(N3)C2=O)C(C)C)C1 (racemic) [Example A484] | 1000 to 10000 | > 10000 | > 10000 | – | – | – | – | – | – | – | – | – | –
3 | C=CC(=O)N1CC[C@H](C(=O)N(C)[C@H](C(=O)N[C@H]2Cc3cc(OC(=O)NCC(=O)O)cc(c3)-c3ccc4c(c3)c(c(-c3ccccc3CCOC)n4CC)CC(C)(C)COC(=O)[C@@H]3CCCN(N3)C2=O)C(C)C)C1 [Example A036] | – | – | – | – | – | – | – | 1000 to 10000 nM and > 10000 nM | > 10000 | 1000 to 10000 nM and > 10000 nM | 1000 to 10000 nM and > 10000 nM | 100 to 1000 nM and > 10000 nM | 1000 to 10000 nM and > 10000 nM
4 | C=CC(=O)N1CC[C@H](C(=O)N(C)[C@H](C(=O)N[C@H]2Cc3cc(O)cc(c3)-c3ccc4c(c3)c(c(-c3ccc(C5CCN(C)CC5)cc3)n4CC)CC(C)(C)COC(=O)[C@@H]3CCCN(N3)C2=O)C(C)C)C1 [Example A039] | – | 1000 to 10000 | 1000 to 10000 | 100 to 1000 | 1000 to 10000 | 1000 to 10000 | 1000 to 10000 | – | – | – | – | – | –
5 | CCn1c(-c2ccccc2CN(C)C)c2c3cc(ccc31)-c1cc(O)cc(c1)C[C@H](NC(=O)[C@H](C(C)C)N(C)C(=O)c1ccc(NC(=O)/C=C/CN(C)C)cn1)C(=O)N1CCC[C@H](N1)C(=O)OCC(C)(C)C2 [Example A046] | – | 1000 to 10000 | > 10000 | 100 to 1000 | 1000 to 10000 | > 10000 | 10 to 100 | – | – | – | – | – | –
6 | C=CC(=O)N1C[C@H](C)[C@H](C(=O)N(C)[C@H](C(=O)N[C@H]2Cc3cc(O)cc(c3)-c3ccc4c(c3)c(c(-c3ccccc3CN(C)C)n4CC)CC(C)(C)COC(=O)[C@@H]3CCCN(N3)C2=O)C(C)C)C1 [Example A052] | – | 100 to 1000 | 100 to 1000 | 10 to 100 | 1000 to 10000 | 100 to 1000 | 100 to 1000 | – | – | – | – | – | –

The next lines start with results.

Row | IC50 [1] [nM] | IC50 [2, 8] [nM] | IC50 [3, 9] [nM] | IC50 [4, 10] [nM] | IC50 [5, 11] [nM] | IC50 [6, 12] [nM] | IC50 [7, 13] [nM] | SMILES | IC50 ([4]; KRAS G12C FRET data IC50, KRAS G12C) | IC50 ([5]; KRAS G12D FRET data, IC50) [nM] | IC50 ([6]; KRAS G12S FRET data, IC50) | IC50 ([2]; KRAS G12V FRET data IC50, KRAS G12V) | IC50 ([7]; KRAS G13C FRET data IC50, KRAS G13C) | IC50 ([3]; KRAS WT FRET data IC50, KRAS WT)
7 | – | 100 to 1000 | 1000 to 10000 | 100 to 1000 | > 10000 | 100 to 1000 | 1000 to 10000 | C=CC(=O)N1C[C@H](C)[C@H](C(=O)N(C)[C@H](C(=O)N[C@H]2Cc3cc(O)cc(c3)-c3ccc4c(c3)c(c(-c3ccccc3CCOC)n4CC)CC(C)(C)COC(=O)[C@@H]3CCCN(N3)C2=O)C(C)C)C1 [Example A041] | – | – | – | – | – | –
8 | – | 100 to 1000 | 1000 to 10000 | 10 to 100 | 1000 to 10000 | 100 to 1000 | 100 to 1000 | C=CC(=O)N1CC[C@H](C(=O)N(C)[C@H](C(=O)N[C@H]2Cc3cc(O)cc(c3)-c3ccc4c(c3)c(c(-c3cccnc3COCC)n4CC)CC(C)(C)COC(=O)[C@@H]3CCCN(N3)C2=O)C(C)C)C1 [Example A044] | – | – | – | – | – | –
9 | – | 100 to 1000 | 1000 to 10000 | 10 to 100 | 1000 to 10000 | 100 to 1000 | 100 to 1000 | CCn1c(-c2ccccc2CN(C)C)c2c3cc(ccc31)-c1cc(O)cc(c1)C[C@H](NC(=O)[C@H](C(C)C)N(C)C(=O)[C@H]1CCN(C(=O)/C=C/CN(C)C)C1)C(=O)N1CCC[C@H](N1)C(=O)OCC(C)(C)C2 [Example A047] | – | – | – | – | – | –
10 | – | 100 to 1000 | 1000 to 10000 | 10 to 100 | 1000 to 10000 | 100 to 1000 | 1000 to 10000 | C=CC(=O)N1CC[C@H](C(=O)N(C)[C@H](C(=O)N[C@H]2Cc3cc(O)cc(c3)-c3ccc4c(c3)c(c(-c3ccc(CN(C)C)cc3COC)n4CC)CC(C)(C)COC(=O)[C@@H]3CCCN(N3)C2=O)C(C)C)C1 [Example A051] | – | – | – | – | – | –
